Data reported in patent US8975259B2, “Compositions and methods for inhibiting G protein signaling” (University of Rochester, priority 2007, dated 2015).

What was measured:
[1] = tested on: PLCβ3; experiment: Gβ1γ2-dependent activation of purified PLCβ3; assay type: biochemical; conditions: for effect on Gβ1γ2-dependent activation of PLCβ3: result in words
Experimental: (§1) Purified PLCβ2 (0.25 ng) was assayed in the presence (▴) or absence (▪) of 100 nM purified Gβ1γ2. […] Assays contained 10 ng of purified p101/p110 PI3Kγ heterodimer with or without 100 nM purified Gβ1γ2. Left panel: (▴) 100 nM Gβ1γ2 or (▪) no βγ. […] M119 or M201 and 25 nM purified GRK2 were added simultaneously to 250 nM biotinylated Gβ1γ2 (bGβ1γ2) immobilized on streptavidin agarose. GRK2 was detected with antibody to GRK2. Data are representative (mean ±SEM, except D) repeated at least three times each. […] 30 nM bGβ1γ2 was incubated with either 30 nM PLCβ2 or PLCβ3 in the presence or absence of M119 or M201 for 16 h at 4° C. before precipitation with avidin agarose and detection with PLCβ2,or Gβ antibodies. […] Same as 4E with PLCβ3.
The ability of NSC119910 analogs to selectively modulate activation PLC-β2 and -β3 was analyzed. In this assay, PLC-β2 and PLC-β3 were purified and PLC enzymatic activity was measured in the presence or absence of purified βy and in the presence or absence of analog.
(§2) Nevertheless, M119 and M201 were tested in in vitro reconstitution assays of Gβγ-dependent activation of PLCβ2, PLCβ3 and PI3Kγ and binding to GRK2. […] These are only two of multiple diverse compounds identified, indicating potential for multiple modes of Gβγ-dependent target modulation by these small molecules.

[2] = tested on: PI3Kγ; experiment: Gβ1γ2-dependent activation of purified p101/p110 PI3Kγ; assay type: biochemical; conditions: for effect on Gβ1γ2-dependent activation of PI3Kγ: result in words
Experimental: as §1, §2

[3] = tested on: primary human neutrophils; experiment: fMLP-induced chemotaxis of primary human neutrophils (Boyden chamber); assay type: cell-based; conditions: 250 nM fMLP; for effect on fMLP-induced chemotaxis: 10 μM compound or 1 μM wortmannin, result in words
Experimental: Differentiated HL60 cells (200 k) were pretreated with 10 μM concentrations of the indicated compound, challenged with 250 nM fMLP, and assayed for chemotaxis in a Boyden chamber for 1 h at 37° C. […] Chemotaxis was quantified as above by subtracting out background cells (0-10 cells) in the absence of chemoattractant to obtain total transmigrated cells (−100 cells GM-CSF+vehicle) and represented as the percentage of GM-CSF-treated control cells. No statistically significant difference from control was seen by ANOVA. […] Primary human neutrophils were isolated from whole blood to ≧80% purity. Neutrophils (2×10^5) were pretreated with gallein (10 μM), M119 (10 μM), M119B (10 μM), or wortmannin (wtmn.) (1 μM) and then challenged with 250 nM fMLP or 10 nM IL-8 to evaluate chemotaxis in a Boyden chamber for 1 h at 37° C. […] NS, not statistically different from control. […] Primary human neutrophils were isolated and treated (250 nM fMLP±gallein) as described above. Chemotaxis was quantified as above by subtracting out background cells to obtain total transmigrated cells and represented as the percentage of fMLP-treated control cells. Data shown are pooled from two independent experiments, each in duplicate, ±S.E.M.
Chemotaxis was assayed using a Boyden chamber (Neuro Probe, Gaithersburg, Md.) using 3-μm polyvinylpyrrolidone-free polycarbonate filters (Neuro Probe). HL60 cells (differentiated for 4 days) were washed with and resuspended in HBSS containing 1% bovine serum albumin to a final concentration of 1×10^6 cells/ml. Primary human neutrophils were washed and resuspended in NaCl buffer (140 mM NaCl, 4 mM KCl, 10 mM D-glucose, 10 mM HEPES, pH 7.4, 1 mM MgCl2, and 1 mM CaCl2) to a final concentration of 1×10^6 cells/mi. Chemoattractant [1 μM granulocyte-macrophage-colony stimulating factor (GM-CSF), 10 nM IL-8, or 250 nM fMLP; Sigma Aldrich] was added to the bottom chamber in HBSS containing 1% bovine serum albumin. Cell suspensions (0.2×10^6 cells/well) were added to the top wells of the Boyden chamber and allowed to migrate for 1 h at 37° C. When applicable, cell suspensions were preincubated for […] with small-molecule inhibitors (in DMSO) at the indicated concentrations, and the bottom chamber was adjusted to the same concentration of small molecule. All treatments contained the same final concentration of DMSO. […] Chemotactic HL60 cells were scored by counting three microscope fields and subtracting the number of cells from fMLP wells as background. […] For all the small molecules, effects of the compounds on chemokinesis was analyzed by measuring chemotaxis in the presence of 250 nM fMLP in both the upper and lower chambers of the Boyden Chamber and measuring changes in transwell migration. […]

[4] = Toxicity on repeated daily dosing in animals; assay type: in vivo

Structure (SMILES)	effect on Gβ1γ2-dependent activation of PLCβ3 [1]	effect on Gβ1γ2-dependent activation of PI3Kγ [2]	effect on fMLP-induced chemotaxis [3]	IC50 ([1]; Table 19, effector IC50, read-out: PLCb3) [µM]	IC50 ([2]; Table 19, effector IC50, read-out: PI 3-Kg) [µM]	toxicity ([4]; 100 mg/kg/day intraperitoneal, one week)	IC50 ([3]; Homo sapiens, Neutrophil, read-out: IC50 for block of fMLP-dependent chemotaxis) [µM]	toxicity in intact animals and histology of lung, liver, brain, heart and kidney ([4]; 10, 30 and 100 mg/kg/day daily injections, two weeks)
O=C(O)C1CCCCC1c1c2ccc(=O)cc-2oc2cc(O)ccc12 (stereo not drawn) [Compound M119B]	did not have effects	did not have effects	no affect					
O=C(O)C1CCCCC1c1c2ccc(=O)c(O)c-2oc2c(O)c(O)ccc12 (stereo not drawn) [Compound M119, cyclohexanecarboxylic acid, 2-(4,5,6-trihydroxy-3-oxo-3H-xanthen-9-yl)-(9cl)]	attenuated	attenuated	significantly inhibited	3	8	no overt toxicity was observed		
O=C(O)c1ccccc1-c1c2ccc(=O)c(O)c-2oc2c(O)c(O)ccc12 (racemic) [Gallein]			significantly inhibited				~5	nor any overt toxicity
